The values below come from US20210340629A1, “BIOMARKERS FOR CANCER THERAPY” (The Council of the Queensland Institute of Medical Research, priority 2018, published 2021).

The test system of this assay is LC3B. Nature of the assay: EGFP-LC3B immunofluorescence analysis (punctate pattern). It counts as cell-based, human. Particulars: D05 and C092 cell lines, 5 μM, 8 hours, data not shown. Here is the method: Retroviral constructs expressing short hairpin RNA to G9a (shG9a) or a non-silencing control (shNS) were used as previously described (Casciello et al. (2017) Proc Natl Acad Sci USA 114, 7077-7082). pBABE-puro mCherry-EGFP-LC3B was obtained from Addgene (plasmid #22418) (N'Diaye et al. (2009) EMBO reports 10, 173-179). The viral supernatants were prepared by co-transfecting the constructs with pUMVC3 and pVSV-G into HEK293T cells using Superfect transfection reagent (Qiagen). The supernatants were harvested and used to infect cells in medium, which contained 8 μg/ml polybrene. Cell medium was replaced and fresh growth medium was added after 24 h. Cells were harvested 72 h later or selected using 1 μg/ml of Puromycin sulfate.
Stable cells expressing EGFP-LC3B construct were treated with DMSO, UNC0642 at 5 μM or 20 nM Bafilomycin A1 (Sigma Aldrich) for 8 hours. Images were taken with an EVOS FL auto fluorescent microscope (Invitrogen) and quantitated using ImageJ software.

Molecules are shown by their SMILES.

As to `COc1cc2c(NC3CCN(C(C)C)CC3)nc(N3CCC(F)(F)CC3)nc2cc1OCCCN1CCCC1` [UNC0642], the “distribution of EGFP-LC3B (punctate pattern)” value is “increase in punctate pattern”.
